Key:
[1] = system: Staphylococcus aureus (ATCC 23235); assay: MIC/MBC broth dilution, S. aureus; assay type: cell-based; conditions: broth dilution, 37 °C, 18 h
Experimental: (§1) One Gram-negative (Escherichia coli (ATCC® 25922TM)) and two Gram-positive bacterial strains (Enterococcus faecalis (ATCC® 19433TM) and Staphylococcus aureus (ATCC® 23235TM)] were used for MIC and MBC values determination, according to CLSI guidelines. MIC represents the lowest concentration of compound inhibiting the visible microbial growth and expressed as μg/mL; MBC is the lowest concentration able to kill the bacteria. Both determinations were performed by the broth dilution method. Bacteria were grown overnight in LB medium (2%), then diluted to a density of […] colony forming units (CFUs) per mL, plated in sterile 96-well microplates, obtaining about 10^5 cells/ well. Increasing concentrations of the Ru-NHC complexes (1, 10, 25, 50, 70, 100 µg/mL) were used. After incubation at 37 °C for 18 h (overnight), bacterial growth was checked at a wavelength of 600 nm using a Multiskan spectrophotometer (model Multiskan Ex Microplate; Thermo Scientific, Nyon, Switzerland) and MIC or MBC values were determined, comparing cell density with a positive control (bacterial cells grown in LB medium were added with only the vehicle, DMSO). Each experiment was carried out five times, in triplicate. Ampicillin (Sigma Aldrich A9393) was used as the control for strain sensitivity.

SH-SY5Y cells = assay: MTT assay, anticancer activity on SH-SY5Y neuroblastoma cells; assay type: cell-based; conditions: 72 h exposure, 0.1-100 µM
Experimental: (§2) The anticancer activity of all the synthesized Ru-NHC complexes (RANHC I-VI) was studied in two human breast cancer cell lines, namely the estrogen receptor positive (ER+) MCF-7 cells and the triple negative MDA-MB-231 cells (ER-, PR-, and HER-2/Neu not overexpressed), and neuroblastoma cells, i.e., SH-SY5Y. First, the cells were exposed for 72 h at different concentrations of the studied complexes (from 0.1 to 100 µM) and then their viability was checked by MTT assay.
(§3) The adopted cells (breast cancer MCF-7 and MDA-MB-231 and human mammary epithelial MCF-10A cells) were purchased from American Type Culture Collection (ATCC, Manassas, VA, USA) and cultured as indicated. The mouse embryonic fibroblast BALB/3T3 and neuroblastoma SH-SY5Y were also obtained from American Type Culture Collection (ATCC, Manassas, VA, USA) and cultured in DMEM high glucose supplemented with 100 U mL^−1 penicillin/streptomycin and 10% bovine calf serum (BCS) or 10% fetal bovine serum (FBS), respectively.
(§4) MTT assay (Sigma Aldrich (St. Louis, MO, USA)) was used for the in vitro anticancer activity evaluation, as previously reported. The Ru-NHC complexes were employed at different concentrations (0.1–1–10–25–50–100 μM) for 72 h. The IC50 values were calculated from the percent (%) of control using GraphPad Prism 9 (GraphPad Software, La Jolla, CA, USA).

[2] = system: Enterococcus faecalis (ATCC 19433); assay: MIC/MBC broth dilution, E. faecalis; assay type: cell-based; conditions: broth dilution, 37 °C, 18 h
Experimental: as §1

[3] = system: Escherichia coli (ATCC 25922); assay: MIC/MBC broth dilution, E. coli; assay type: cell-based; conditions: broth dilution, 37 °C, 18 h
Experimental: as §1

[4] = ABTS radical scavenging assay; conditions: for IC50: 5 min, room temperature, 730 nm
From the text: To further analyze the Ru-NHC complexes antiradical potential, we examined their capability to interfere with the ABTS radical cation, a well-known protonated radical with a characteristic maximal absorbance at 730 nm, which diminishes with the scavenging of the radical proton. The assay measures radical scavenging by the electron donation. The outcomes in terms of ABTS% scavenging activity are reported in Figure 7 and IC50 values of Ru-NHC complexes, together with the standard Trolox, on ABTS radical are summarized in Table 3 and Table S3.
The radical scavenging properties of the Ru-NHC complexes on a 2,2′-azino-bis(3-ethylbenzothiazoline-6-sulfonate) radical cation (ABTS^•+) were calculated as described by Fazio et al., with few adjustments. Briefly, 2 mM ABTS and 70 mM potassium persulfate water solutions were mixed and incubated to obtain ABTS^•+ radical stock solution (16 h, room temperature, in the dark). ABTS solution was diluted in ethanol to obtain an absorbance of 0.70 ± 0.02 at 730 nm, prior to use. Then, 2 μL of each Ru-NHC complex at different concentrations, properly dissolved in DMSO, were mixed with 198 μL of the ABTS^•+ solution in a 48-well plate obtaining the following concentrations: 0.1, 1, 10, 50, and 100 µg/mL. The solutions were vigorously shaken and incubated (5 min, room temperature, in the dark). The ABTS scavenging activity was determined at 730 nm, using a microplate reader. The control was prepared mixing 2 μL of DMSO with 198 μL of the ABTS^•+ solution. The ABTS radical scavenging was expressed as inhibition percentages (%IABTS) of each complex compared to the control, according to the formula: %IABTS=A0−A/A0×100 where A0 is the absorbance at 730 nm of the control reaction and A is the absorbance at 730 nm in the presence of samples.
IC50 values for the Ru complexes were calculated from the %IABTS using GraphPad Prism 9 software (GraphPad Inc., San Diego, CA, USA). Trolox was employed as the positive control.

MDA-MB-231 cells = assay: MTT assay, anticancer activity on MDA-MB-231 cells; assay type: cell-based, human; conditions: for IC50: MTT, 72 h exposure, 0.1-100 µM; for fold more active against MDA-MB-231 than MCF-10A cells: ratio of IC50 values MCF-10A / MDA-MB-231
Experimental: as §2, §3, §4

Compound | M.I.C. S. aureus [1] | IC50 (SH-SY5Y cells) | M.I.C. E. faecalis [2] | M.I.C. E. coli [3] | IC50 [4] | IC50 (MDA-MB-231 cells) | ABTS IC50 fold lower than that of Trolox ([4]; IC50 ratio to Trolox) | fold more active against MDA-MB-231 than MCF-10A cells (MDA-MB-231 cells)
COC(Cn1ccn(C)[c]1=[Ru]([Cl])[Cl])c1ccccc1.Cc1ccc(C(C)C)cc1 (stereo not drawn) [RANHC-I] | 25 µg/mL | 90 ± 1.2 µM | 50 µg/mL | 50 µg/mL | 13.5 ± 0.7 µM | > 100 µM |  | 
COC(Cn1ccn(C)[c]1=[Ru]([I])[I])c1ccccc1.Cc1ccc(C(C)C)cc1 (stereo not drawn) [RANHC-II] | 25 µg/mL | > 100 µM | 50 µg/mL | 50 µg/mL | 16.1 ± 0.7 µM | > 100 µM |  | 
COC(Cn1ccn(C)[c]1=[Ru]1[O]C(=O)C(=O)[O]1)c1ccccc1.Cc1ccc(C(C)C)cc1 (stereo not drawn) [RANHC-IV] | 25 µg/mL | 88.9 ± 0.9 µM | 50 µg/mL | 50 µg/mL | 8.57 ± 1.1 µM | > 100 µM |  | 
CN1C=CN2CC(c3ccccc3)[O+](C)[Ru]([Cl])=[C]12.Cc1ccc(C(C)C)cc1.F[P-](F)(F)(F)(F)F (stereo not drawn) [RANHC-III] | 25 µg/mL | > 100 µM | 50 µg/mL | 25 µg/mL | 5.53 ± 1.1 µM | > 100 µM | about 17 fold | 
COC(Cn1c(Cl)c(Cl)n(C)[c]1=[Ru]([Cl])[Cl])c1ccccc1.Cc1ccc(C(C)C)cc1 (stereo not drawn) [RANHC-V] | 25 µg/mL | 48.4 ± 0.8 µM | 70 µg/mL | 50 µg/mL | 11.4 ± 0.8 µM | 24.1 ± 0.7 µM |  | about 3.3 fold
COC(Cn1[c](=[Ru]([Cl])[Cl])n(C)c2ccccc21)c1ccccc1.Cc1ccc(C(C)C)cc1 (stereo not drawn) [RANHC-VI] | 25 µg/mL | 66.9 ± 0.8 µM | 50 µg/mL | 25 µg/mL | 17.2 ± 1.1 µM | 40.6 ± 1.1 µM |  | 2.2 fold
